The values that follow come from ChEMBL document CHEMBL1128198, “New drug developments for opportunistic infections in immunosuppressed patients: Pneumocystis carinii” (J Med Chem, 1995).

Some results are limits rather than exact numbers.

The target in one series is T1, Dihydrofolate reductase (Rattus norvegicus, UniProt Q920D2).
T1 sequence (Q920D2 whole entry): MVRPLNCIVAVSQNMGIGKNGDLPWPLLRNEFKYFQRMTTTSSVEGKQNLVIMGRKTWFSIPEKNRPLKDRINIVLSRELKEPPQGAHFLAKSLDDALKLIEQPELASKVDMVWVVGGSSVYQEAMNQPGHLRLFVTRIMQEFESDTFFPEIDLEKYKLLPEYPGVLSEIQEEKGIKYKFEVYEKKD
The series can be described thus: Inhibitory activity against dihydrofolate reductase in rat.
Details: not given
In general, IC50 refers to the concentration at which inhibition is half-maximal. The molecule `CCN=NNc1cc(-c2c(N)nc(N)nc2CC)ccc1Cl` had an IC50 of 18900 nM.

The subject of another series is Pneumocystis carinii. The series can be described thus: Toxicity in Pneumocystis carinii Strong activity. It counts as organism-based. The settings on record: in vivo.
On to `c1cc2[nH]c(CCCCc3nc4cc(C5=NCCN5)ccc4[nH]3)nc2cc1C1=NCCN1`, for which the Toxicity result is “Strong activity”.
Still for that read-out and setting: under `N=C(N)c1ccc2[nH]c(CCCCc3nc4cc(C(=N)N)ccc4[nH]3)nc2c1` stands “Strong activity”.

Another series relates to Pneumocystis carinii. Kind of series: Pneumocystis carinii cysts per gram of lung tissue was determined in Pneumocystis carinii expressed as perscent of saline treated- control. Format: functional. The arrangement: concentration or dose not given beside the values.
Details: not given
With `c1cc2[nH]c(CCCCc3nc4cc(C5=NCCN5)ccc4[nH]3)nc2cc1C1=NCCN1`, the “Lung cyst count, % of saline control” value is recorded as 0.1%.
Same read-out and setting: the result for `N=C(N)c1ccc2[nH]c(CCCCc3nc4cc(C(=N)N)ccc4[nH]3)nc2c1` reads 0.3%; that for `N=C(N)c1ccc2[nH]c(/C=C/c3nc4cc(C(=N)N)ccc4[nH]3)nc2c1`, 3%.
Same read-out and setting: the result for `N=C(N)c1ccc2[nH]c(CCc3nc4cc(C(=N)N)ccc4[nH]3)nc2c1` reads 1%; that for `N=C(N)c1ccc2[nH]c(CCCc3nc4cc(C(=N)N)ccc4[nH]3)nc2c1`, 32%; that for `c1cc2[nH]c(CCCc3nc4cc(C5=NCCN5)ccc4[nH]3)nc2cc1C1=NCCN1`, 4%.

The species entered for another series is Rattus norvegicus. Kind of series: toxicity was reported in rat. Format: organism-based. The settings on record: in vivo.
As for `N=C(N)c1ccc(OCCCCOc2ccc(C(=N)N)cc2)cc1`, the Toxicity came to 0.

The target in another series is T2, Dihydrofolate reductase (Pneumocystis carinii, UniProt P16184).
T2 sequence (P16184 whole entry): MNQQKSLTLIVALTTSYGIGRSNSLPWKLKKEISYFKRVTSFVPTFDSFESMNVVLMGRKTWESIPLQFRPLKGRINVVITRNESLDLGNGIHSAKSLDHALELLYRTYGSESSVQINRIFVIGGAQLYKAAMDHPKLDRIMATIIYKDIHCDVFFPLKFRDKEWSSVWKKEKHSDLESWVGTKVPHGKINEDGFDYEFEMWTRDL
Experiment: not given
Details: not given
`COCCOc1c(OC)cc(Cc2cnc(N)nc2N)cc1OC` [TETROXOPRIM] displayed an IC50 greater than 63000 nM.
`CC1(C)N=C(N)N=C(N)N1c1ccc(Cl)cc1` [CYCLOGUANIL] returned an IC50 of 450 nM.
The same measure, in the same setting: under `CCOc1cc(Cc2cnc(N)nc2N)cc(OCC)c1-n1cccc1` [EPIROPRIM] stands 3000 nM.

Tested on in a further series: not listed separately
Kind of series: Ratio for IC50 of mammalian DHFR to IC50 of Pneumocystis carinii DHFR.
Details: not given
`CCOc1cc(Cc2cnc(N)nc2N)cc(OCC)c1-n1cccc1` [EPIROPRIM]: the Selectivity was 44.

The species entered for another series is Rattus norvegicus. The series can be described thus: Toxicity was reported in rat; Toxic,. It counts as organism-based. As to conditions: in vivo.
In the case of `COc1ccc(C2=NCCN2)cc1OCCCCOc1cccc(C2=NCCN2)c1`, the Toxicity entry is recorded as “Toxic”.
Still for that read-out and setting: under `N=C(N)c1ccc(OCCCCCOc2ccc(C(=N)N)cc2)cc1` [PENTAMIDINE] stands “Toxic”.

The test system of a further series is Pneumocystis carinii. The series can be described thus: Minimal effective concentration inhibiting growth of Pneumocystis carinii was reported. Format: functional. The settings on record: read-out: MEC.
For `CCCCCCOc1c(OC)cc(NC(C)CCCN)c2nccc(C)c12` (stereo not drawn) [WR-242511], the minimal effective concentration came to 0.2 µM.
`COc1cc(NC(C)CCCN)c2nc(C)ccc2c1` (stereo not drawn): the minimal effective concentration came out at 0.03 µM.
Regarding `COc1cc(C)c2c(Oc3cccc(C(F)(F)F)c3)c(OC)cc(NC(C)CCCN)c2n1` (stereo not drawn) [TAFENOQUINE], the minimal effective concentration turned out to be 0.2 µM.
The same measure, in the same setting: under `CCN(CC)CCCCCCNc1cc(OC)cc2c(C)ccnc12` [SITAMAQUINE] stands 2.3 µM; under `COc1cc(NC(C)CCCN)c2nccc(C)c2c1` (stereo not drawn), 0.02 µM; under `COc1cc(NC(C)CCCN)c2nccc(C)c2c1Oc1cccc(C(F)(F)F)c1` (stereo not drawn), 0.2 µM.
Still for that read-out and setting: the result for `COc1cc(NCCCCC(C)N)c2nccc(C)c2c1` (stereo not drawn) reads 0.2 µM; that for `COc1cc(NC(C)CCCN)c2ncccc2c1` (stereo not drawn) [PRIMAQUINE], 0.02 µM.

The species entered for a further series is Rattus norvegicus. The series can be described thus: Toxicity was reported in rat; Toxic. The settings on record: in vivo. It counts as organism-based.
With `N=C(N)c1ccc(OCCCOc2ccc(C(=N)N)cc2)cc1` [PROPAMIDINE], the Toxicity entry is on record as “Toxic”.

Target in a further series: not listed separately
Kind of series: Inhibitory activity of Pneumocystis carinii growth culture.
Details: not given
`CCN=NNc1cc(-c2c(N)nc(N)nc2CC)ccc1Cl` came in with a half-maximal inhibitory concentration (IC50) of 5500 nM.

The next series addresses T2, Dihydrofolate reductase.
Experiment: not given
Details: not given
This is another data set of the same source.
In general, Ki refers to a dissociation constant, usually derived from enzyme kinetics or from competition with a known ligand. `CC1(C)N=C(N)N=C(N)N1c1ccc(Cl)cc1` [CYCLOGUANIL] registered a Ki of 23.3 nM.
The same measure, in the same setting: the result for `CCOc1cc(Cc2cnc(N)nc2N)cc(OCC)c1-n1cccc1` [EPIROPRIM] reads 3.4 nM.

Another series addresses T1, Dihydrofolate reductase. Kind of series: Inhibitory activity against dihydrofolate reductase in rat liver.
Details: not given
The molecule `CC1(C)N=C(N)N=C(N)N1c1ccc(Cl)cc1` [CYCLOGUANIL] registered a half-inhibitory concentration (IC50) of 110 nM.

The target of another series is T2, Dihydrofolate reductase.
Experiment: not given
Details: not given
This is another data set of the same source.
Molecule `CN(Cc1cnc2nc(N)nc(N)c2n1)c1ccc(C(=O)NC(CCC(=O)NC(CCC(=O)NC(CCC(=O)NC(CCC(=O)O)C(=O)O)C(=O)O)C(=O)O)C(=O)O)cc1` (stereo not drawn) yielded a half-inhibitory concentration (IC50) of 35 nM.
The same measure, in the same setting: the result for `Nc1ccc(S(=O)(=O)c2ccc(N)cc2)cc1` [DAPSONE] reads 1500 nM.
The same measure, in the same setting: under `CCc1nc(N)nc(N)c1-c1ccc(Cl)c([N+]#N)c1` stands 190 nM.
The same measure, in the same setting: the result for `CN(Cc1cnc2cc(N)cc(N)c2n1)c1ccc(C(=O)NC(CCC(=O)O)C(=O)O)c2ccccc12` (stereo not drawn) reads 190 nM.
Regarding `COc1cc(Cn2ccc3c4c(N)nc(N)nc4nc(O)c32)cc(OC)c1OC`, half-maximal inhibition (IC50) required 3100 nM.
Still for that read-out and setting: the result for `Nc1nc(N)c2cc(Sc3cccc(C(F)(F)F)c3)sc2n1` reads 120000 nM; that for `COc1ccc(OC)c(CCc2sc3nc(N)nc(N)c3c2C)c1`, 1200 nM; that for `CCN=NNc1cc(-c2c(N)nc(N)nc2CC)ccc1Cl`, 2800 nM.
Still for that read-out and setting: under `Nc1nc(N)c2c(ncc3c2ccn3Cc2ccc(Cl)cc2Cl)n1` stands 6 nM; under `Nc1cc(N)c2nc(CSc3ccccc3)cnc2c1`, 9500 nM.
The same measure, in the same setting: under `CCc1nc(N)nc(N)c1-c1ccc(Cl)c(NCN(C)C)c1` stands 10600 nM.

A further series concerns the target T2, Dihydrofolate reductase.
Experiment: not given
Details: not given
This is another data set of the same source.
Turning to `Cc1cc(NS(=O)(=O)c2ccc(N)cc2)no1` [SULFAMETHOXAZOLE], the IC50 came out at 100 nM.

A further series is filed under the species Rattus norvegicus. The series can be described thus: Toxicity was reported in rat. It counts as organism-based. The settings on record: in vivo.
In the case of `COc1cc(C2=NCCN2)ccc1OCCCOc1ccc(C2=NCCN2)cc1`, the Toxicity was 0.
For the molecule `N=C(N)c1cccc(OCCCCOc2cccc(C(=N)N)c2)c1`, the Toxicity stood at 0.
Same read-out and setting: the result for `c1cc(C2=NCCN2)ccc1OCOc1ccc(C2=NCCN2)cc1` reads 0.
For `c1cc(OCCOc2cccc(C3=NCCN3)c2)cc(C2=NCCN2)c1`, the Toxicity entry is recorded as “Toxic”.
Same read-out and setting: the result for `COc1cc(C(=N)N)ccc1OCOc1ccc(C(=N)N)cc1OC` reads 0; that for `COc1cc(OCCCCOc2cc(C(=N)N)ccc2OC)cc(C(=N)N)c1`, 0.
On the same count and under the same terms, under `N=C(N)c1cc(N)cc(OCCCCOc2cc(C(=N)N)ccc2N)c1` stands 0; under `N=C(N)c1ccc(OCOc2ccc(C(=N)N)cc2N)c(N)c1`, 0; under `N=C(N)c1cccc(OCOc2cccc(C(=N)N)c2)c1`, 0.

In the next series the test system is Rattus norvegicus. Kind of series: Evaluated for effectiveness at 10 mg/kg reported as relative to pentamidine in rat. Format: functional.
Details: not given
`COc1cc(C2=NCCN2)ccc1OCCCOc1ccc(C2=NCCN2)cc1`: the Effectiveness was determined as 1.3.
On the same count and under the same terms, the result for `N=C(N)c1cccc(OCCCCOc2cccc(C(=N)N)c2)c1` reads 0.6; that for `COc1ccc(C2=NCCN2)cc1OCCCCOc1cccc(C2=NCCN2)c1`, 1.7; that for `c1cc(C2=NCCN2)ccc1OCOc1ccc(C2=NCCN2)cc1`, 2.4.
Consider `c1cc(OCCOc2cccc(C3=NCCN3)c2)cc(C2=NCCN2)c1`, for which the Effectiveness was found to be 0.6.
On the same count and under the same terms, the result for `COc1cc(C(=N)N)ccc1OCOc1ccc(C(=N)N)cc1OC` reads 1.8; that for `N=C(N)c1ccc(OCCCOc2ccc(C(=N)N)cc2)cc1` [PROPAMIDINE], 1.2.
Still for that read-out and setting: under `N=C(N)c1ccc(OCCCCCOc2ccc(C(=N)N)cc2)cc1` [PENTAMIDINE] stands 1; under `N=C(N)c1ccc(OCCCCOc2ccc(C(=N)N)cc2)cc1`, 2.2.
Consider `COc1cc(OCCCCOc2cc(C(=N)N)ccc2OC)cc(C(=N)N)c1`, for which the Effectiveness was 1.2.
Still for that read-out and setting: under `N=C(N)c1cc(N)cc(OCCCCOc2cc(C(=N)N)ccc2N)c1` stands 1.1.
Same read-out and setting: under `N=C(N)c1ccc(OCOc2ccc(C(=N)N)cc2N)c(N)c1` stands 1.1.
The same measure, in the same setting: the result for `N=C(N)c1cccc(OCOc2cccc(C(=N)N)c2)c1` reads 0.7.
